Results reported in PubChem BioAssay (NCI).
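A five-concentration, 48-hour dose response in 96-well plates underlies each endpoint, interpolated linearly between surrounding concentrations. GI50 marks 50% less growth. TGI: concentration producing complete growth inhibition.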

Tests used:
Test in all cases: inhibition of tumour cell growth, NCI panel, 48 h
NCI-H23 lung = tested on: NCI-H23 lung
NCI-H226 lung = tested on: NCI-H226 lung
786-0 renal = tested on: 786-0 renal
K-562 leukemia = tested on: K-562 leukemia
HT29 colon = tested on: HT29 colon
LOX IMVI melanoma = tested on: LOX IMVI melanoma
U251 CNS = tested on: U251 CNS
SK-MEL-2 melanoma = tested on: SK-MEL-2 melanoma
BT-549 breast = tested on: BT-549 breast
HCT-116 colon = tested on: HCT-116 colon
A549 NSCLC = tested on: A549 NSCLC
OVCAR-8 ovarian = tested on: OVCAR-8 ovarian
RPMI-8226 leukemia = tested on: RPMI-8226 leukemia
SK-MEL-5 melanoma = tested on: SK-MEL-5 melanoma
NCI/ADR-RES ovarian = tested on: NCI/ADR-RES ovarian
UACC-62 melanoma = tested on: UACC-62 melanoma
COLO 205 colon = tested on: COLO 205 colon
RXF 393 renal = tested on: RXF 393 renal
SNB-75 CNS = tested on: SNB-75 CNS
HL-60(TB) leukemia = tested on: HL-60(TB) leukemia
SK-MEL-28 melanoma = tested on: SK-MEL-28 melanoma
DU-145 prostate = tested on: DU-145 prostate
MALME-3M melanoma = tested on: MALME-3M melanoma
A498 renal = tested on: A498 renal
ACHN renal = tested on: ACHN renal
HOP-92 NSCLC = tested on: HOP-92 NSCLC
NCI-H522 lung = tested on: NCI-H522 lung
T-47D breast = tested on: T-47D breast
NCI-H460 lung = tested on: NCI-H460 lung
UACC-257 melanoma = tested on: UACC-257 melanoma
KM12 colon = tested on: KM12 colon
PC-3 prostate = tested on: PC-3 prostate
CAKI-1 renal = tested on: CAKI-1 renal
SF-539 CNS = tested on: SF-539 CNS
HCC-2998 colon = tested on: HCC-2998 colon
MOLT-4 leukemia = tested on: MOLT-4 leukemia
CCRF-CEM leukemia = tested on: CCRF-CEM leukemia
HCT-15 colon = tested on: HCT-15 colon
SF-295 CNS = tested on: SF-295 CNS
MDA-MB-435 = tested on: MDA-MB-435
SR leukemia = tested on: SR leukemia
MCF7 breast = tested on: MCF7 breast
MDA-MB-231 breast = tested on: MDA-MB-231 breast
SW-620 colon = tested on: SW-620 colon
M14 melanoma = tested on: M14 melanoma
OVCAR-5 ovarian = tested on: OVCAR-5 ovarian
TK-10 renal = tested on: TK-10 renal
HS 578T breast = tested on: HS 578T breast
SNB-19 CNS = tested on: SNB-19 CNS
SF-268 CNS = tested on: SF-268 CNS
IGROV1 ovarian = tested on: IGROV1 ovarian
OVCAR-3 ovarian = tested on: OVCAR-3 ovarian
OVCAR-4 ovarian = tested on: OVCAR-4 ovarian
SK-OV-3 ovarian = tested on: SK-OV-3 ovarian
SN12C renal = tested on: SN12C renal
UO-31 renal = tested on: UO-31 renal
HOP-62 NSCLC = tested on: HOP-62 NSCLC
EKVX NSCLC = tested on: EKVX NSCLC

O=C1/C(=C/c2ccc([N+](=O)[O-])s2)Oc2ccccc21
GI50 (NCI-H23 lung): 1.31 µM
TGI (NCI-H23 lung): 3.19 µM
GI50 (NCI-H226 lung): 2.24 µM
TGI (NCI-H226 lung): 5.75 µM
GI50 (786-0 renal): 2.42 µM
TGI (786-0 renal): 6.29 µM
GI50 (K-562 leukemia): 0.243 µM
TGI (K-562 leukemia): 0.728 µM
GI50 (HT29 colon): 0.771 µM
TGI (HT29 colon): 4.67 µM
GI50 (LOX IMVI melanoma): 0.434 µM
TGI (LOX IMVI melanoma): 1.64 µM
GI50 (U251 CNS): 0.561 µM
TGI (U251 CNS): 1.82 µM
GI50 (SK-MEL-2 melanoma): 0.945 µM
TGI (SK-MEL-2 melanoma): 3.04 µM
GI50 (BT-549 breast): 0.745 µM
TGI (BT-549 breast): 1.98 µM
GI50 (HCT-116 colon): 0.267 µM
TGI (HCT-116 colon): 0.791 µM
GI50 (A549 NSCLC): 1.66 µM
TGI (A549 NSCLC): 3.88 µM
GI50 (OVCAR-8 ovarian): 0.297 µM
TGI (OVCAR-8 ovarian): 1.68 µM
GI50 (RPMI-8226 leukemia): 0.379 µM
TGI (RPMI-8226 leukemia): 3.57 µM
GI50 (SK-MEL-5 melanoma): 1.18 µM
TGI (SK-MEL-5 melanoma): 2.62 µM
GI50 (NCI/ADR-RES ovarian): 1.74 µM
TGI (NCI/ADR-RES ovarian): 9.25 µM
GI50 (UACC-62 melanoma): 0.667 µM
TGI (UACC-62 melanoma): 1.94 µM
GI50 (COLO 205 colon): 1.26 µM
TGI (COLO 205 colon): 2.66 µM
GI50 (RXF 393 renal): 1.1 µM
TGI (RXF 393 renal): 2.85 µM
GI50 (SNB-75 CNS): 1.03 µM
TGI (SNB-75 CNS): 5.98 µM
GI50 (HL-60(TB) leukemia): 0.96 µM
GI50 (SK-MEL-28 melanoma): 1.25 µM
TGI (SK-MEL-28 melanoma): 2.65 µM
GI50 (DU-145 prostate): 2.43 µM
TGI (DU-145 prostate): 5.56 µM
GI50 (MALME-3M melanoma): 1.39 µM
TGI (MALME-3M melanoma): 3.92 µM
GI50 (A498 renal): 3.22 µM
TGI (A498 renal): 18 µM
GI50 (ACHN renal): 0.568 µM
TGI (ACHN renal): 1.77 µM
GI50 (HOP-92 NSCLC): 0.557 µM
TGI (HOP-92 NSCLC): 2.29 µM
GI50 (NCI-H522 lung): 0.189 µM
TGI (NCI-H522 lung): 0.382 µM
GI50 (T-47D breast): 0.29 µM
TGI (T-47D breast): 4.12 µM
GI50 (NCI-H460 lung): 1.51 µM
TGI (NCI-H460 lung): 3.53 µM
GI50 (UACC-257 melanoma): 1.26 µM
TGI (UACC-257 melanoma): 2.78 µM
GI50 (KM12 colon): 0.352 µM
TGI (KM12 colon): 1.28 µM
GI50 (PC-3 prostate): 0.387 µM
TGI (PC-3 prostate): 2.26 µM
GI50 (CAKI-1 renal): 2.2 µM
TGI (CAKI-1 renal): 5.22 µM
GI50 (SF-539 CNS): 0.654 µM
TGI (SF-539 CNS): 2.1 µM
GI50 (HCC-2998 colon): 1.42 µM
TGI (HCC-2998 colon): 2.89 µM
GI50 (MOLT-4 leukemia): 0.654 µM
TGI (MOLT-4 leukemia): 3.23 µM
GI50 (CCRF-CEM leukemia): 0.282 µM
TGI (CCRF-CEM leukemia): 0.874 µM
GI50 (HCT-15 colon): 0.246 µM
TGI (HCT-15 colon): 0.688 µM
GI50 (SF-295 CNS): 2.07 µM
TGI (SF-295 CNS): 4.63 µM
GI50 (MDA-MB-435): 1.3 µM
TGI (MDA-MB-435): 3.17 µM
GI50 (SR leukemia): 0.216 µM
TGI (SR leukemia): 0.759 µM
GI50 (MCF7 breast): 0.75 µM
TGI (MCF7 breast): 5.02 µM
GI50 (MDA-MB-231 breast): 0.279 µM
TGI (MDA-MB-231 breast): 0.818 µM
GI50 (SW-620 colon): 0.257 µM
TGI (SW-620 colon): 0.725 µM
GI50 (M14 melanoma): 1.17 µM
TGI (M14 melanoma): 3.57 µM
GI50 (OVCAR-5 ovarian): 1.78 µM
TGI (OVCAR-5 ovarian): 3.53 µM
GI50 (TK-10 renal): 1.68 µM
TGI (TK-10 renal): 3.59 µM
GI50 (HS 578T breast): 0.882 µM
TGI (HS 578T breast): > 48.6 µM
GI50 (SNB-19 CNS): 1.26 µM
TGI (SNB-19 CNS): 2.79 µM
GI50 (SF-268 CNS): 0.367 µM
TGI (SF-268 CNS): 1.5 µM
GI50 (IGROV1 ovarian): 0.839 µM
TGI (IGROV1 ovarian): 2.45 µM
GI50 (OVCAR-3 ovarian): 0.25 µM
TGI (OVCAR-3 ovarian): 0.55 µM
GI50 (OVCAR-4 ovarian): 0.538 µM
TGI (OVCAR-4 ovarian): 2.8 µM
GI50 (SK-OV-3 ovarian): 2.13 µM
TGI (SK-OV-3 ovarian): 5.19 µM
GI50 (SN12C renal): 1.23 µM
TGI (SN12C renal): 3.04 µM
GI50 (UO-31 renal): 0.323 µM
TGI (UO-31 renal): 2.13 µM

CC12CCc3ccccc3C1=Nc1ccccc12 (stereo unspecified)
TGI (NCI-H23 lung): > 100 µM
TGI (NCI-H226 lung): 89.8 µM
TGI (786-0 renal): > 100 µM
TGI (K-562 leukemia): > 100 µM
TGI (HT29 colon): > 100 µM
TGI (LOX IMVI melanoma): > 100 µM
TGI (U251 CNS): > 100 µM
TGI (HOP-62 NSCLC): > 100 µM
TGI (SK-MEL-2 melanoma): > 100 µM
TGI (BT-549 breast): 95.6 µM
TGI (HCT-116 colon): > 100 µM
TGI (A549 NSCLC): > 100 µM
TGI (OVCAR-8 ovarian): > 100 µM
TGI (SK-MEL-5 melanoma): 30.4 µM
TGI (NCI/ADR-RES ovarian): 64.6 µM
TGI (UACC-62 melanoma): > 100 µM
TGI (EKVX NSCLC): > 100 µM
TGI (COLO 205 colon): > 100 µM
TGI (RXF 393 renal): > 100 µM
TGI (SNB-75 CNS): > 100 µM
TGI (HL-60(TB) leukemia): 76.6 µM
TGI (SK-MEL-28 melanoma): > 100 µM
TGI (DU-145 prostate): > 100 µM
TGI (MALME-3M melanoma): > 100 µM
TGI (ACHN renal): > 100 µM
TGI (HOP-92 NSCLC): 54 µM
TGI (NCI-H522 lung): > 100 µM
TGI (T-47D breast): > 100 µM
TGI (NCI-H460 lung): > 100 µM
TGI (UACC-257 melanoma): > 100 µM
TGI (KM12 colon): 91.9 µM
TGI (PC-3 prostate): > 100 µM
TGI (CAKI-1 renal): 51.6 µM
TGI (SF-539 CNS): 78.5 µM
TGI (MOLT-4 leukemia): 58.5 µM
TGI (CCRF-CEM leukemia): 47.3 µM
TGI (HCT-15 colon): > 100 µM
TGI (SF-295 CNS): > 100 µM
TGI (MDA-MB-435): 82.6 µM
TGI (SR leukemia): > 100 µM
TGI (MCF7 breast): > 100 µM
TGI (MDA-MB-231 breast): > 100 µM
TGI (SW-620 colon): > 100 µM
TGI (M14 melanoma): > 100 µM
TGI (OVCAR-5 ovarian): > 100 µM
TGI (TK-10 renal): > 100 µM
TGI (HS 578T breast): 46.7 µM
TGI (SNB-19 CNS): > 100 µM
TGI (SF-268 CNS): > 100 µM
TGI (IGROV1 ovarian): > 100 µM
TGI (OVCAR-3 ovarian): 66.5 µM
TGI (OVCAR-4 ovarian): > 100 µM
TGI (SK-OV-3 ovarian): > 100 µM
TGI (SN12C renal): 43.7 µM
TGI (UO-31 renal): > 100 µM
